This test has as its target T1, hROMK (hKir1.1) (Homo sapiens, UniProt P48048).
T1 construct: expressed in transfected cells
T1 sequence (P48048 1-391): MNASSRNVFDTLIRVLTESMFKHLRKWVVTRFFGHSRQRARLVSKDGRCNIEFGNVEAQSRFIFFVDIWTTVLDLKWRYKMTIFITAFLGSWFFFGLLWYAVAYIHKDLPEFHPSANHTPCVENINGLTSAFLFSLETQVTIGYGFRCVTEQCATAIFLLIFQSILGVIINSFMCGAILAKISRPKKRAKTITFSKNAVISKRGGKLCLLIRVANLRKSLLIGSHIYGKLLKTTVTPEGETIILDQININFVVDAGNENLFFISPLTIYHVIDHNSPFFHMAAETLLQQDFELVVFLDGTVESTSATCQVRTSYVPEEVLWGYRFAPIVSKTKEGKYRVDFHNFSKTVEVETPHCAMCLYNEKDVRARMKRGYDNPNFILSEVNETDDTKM
The experiment in a line: Thallium Flux Assay (ROMK channel functional thallium flux, FLIPR-Tetra). In kind it is cell-based. To be noted: HEK293 cells stably expressing hROMK (hKir1.1); 30 min incubation with compound; HCl salt run where final product was an HCl salt. As to the method:
The following Thallium Flux Assay was performed on each of the final product compounds in the Examples. When the final product of an Example was an HCl salt, the salt was run in the Assay.
Cell Culture Conditions—HEK293 cells stably expressing hROMK (hKir1.1) were grown at 37° C. in a 10% CO2 humidified incubator in complete growth media: Dulbecco's Modified Eagle Medium supplemented with non-essential amino acids, Penicillin/Streptomycin/Glutamine, G418 and FBS. At >80% confluency, aspirate the media from the flask and rinse with 10 mL Calcium/Magnesium-free PBS. Add 5 mL of 1× trypsin (prepared in Ca/Mg Free PBS) to T-225 flask and return flask to 37° C./CO2 incubator for 2-3 minutes. To dislodge the cell, gently bang the side of the flask with your hand. Triturate the cells completely and then transfer the cells to 25 mL complete media. Centrifuge at 1,500 rpm for 6 min followed by resuspension in complete growth media and determine cell concentration. For typical re-seeding, 4E6 cells/T-225 flask will attain >80% confluency in 4 days. Under ideal growth conditions and appropriate tissue culture practices, this cell line is stable for 40-45 passages.
FluxOR Kit Components (Invitrogen F10017)
• FluxOR™ Reagent (Component A) • FluxOR™ Assay Buffer (Component B)—10× Concentrate • PowerLoad™ Concentrate (Component C)—100× Concentrate • Probenecid (Component D)—Lyophilized sample is kept at −20° C. Water soluble, 100× after solubilization in 1 mL water. Store at 4° C. • FluxOR™ Chloride-free Buffer (Component E)—5× Concentrate • Potassium sulfate (K2SO4) Concentrate (Component F)—125 mM in water. Store at 4° C. • Thallium sulfate (T12SO4) Concentrate (Component G)—50 mM in water. Store at 4° C. • DMSO (dimethyl sulfoxide, Component H)—1 mL (100%) Reagent Preparation: FluxOR Working Solutions • 1000× FluxOR™ Reagent: Reconstitute a vial of component A in 100 μl DMSO; Mix well; Store 10 μl aliquots at −20° C. • 1× FluxOR™ Assay Buffer: Dilute Component B 10-fold with water; Adjust pH to 7.4 with Hepes/NaOH; Filter and store at 4° C. • Probenecid/Assay Buffer: 100 mL of 1× FluxOR™ Assay Buffer; 1 mL of reconstituted component D; Store at 4° C. • Loading Buffer (per microplate): 10 μl 1000× FluxOR™ Reagent; 100 μl component C; 10 mL Probenecid/Assay Buffer • Compound Buffer (per microplate): 20 mL Probenecid/Assay Buffer; 0.3 mM ouabain (10 mM ouabain in water can be stored in amber bottle/aluminum foil at room temperature); Test compound • 1× FluxOR™ Chloride-Free Buffer: Prepare 1× working solution in water. Can be stored at room temperature • Stimulant Buffer (prepared at 5× final concentration in 1× FluxOR™ Chloride-Free Buffer): 7.5 mM Thallium sulfate and 0.75 mM Potassium sulfate (to give a final assay concentration of 3 mM Thallium/0.3 mM Potassium). Store at 4° C. when not in use.
Assay protocol—The ROMK channel functional thallium flux assay is performed in 384 wells, using the FLIPR-Tetra instrument. HEK-hKir1.1 cells are seeded in Poly-D-Lysine microplates and kept in a 37° C.-10% CO2 incubator overnight. On the day of the experiment, the growth media is replaced with the FluxOR™ reagent loading buffer and incubated, protected from light, at ambient temperature (23-25° C.) for 90 min. The loading buffer is replaced with assay buffer±test compound followed by 30 min incubation at ambient temperature, where the Thallium/Potassium stimulant is added to the microplate.
• 1. Seed HEK-hKir1.1 cells (50 μl at 20,000 cells/well) in 384-well PDL coated Microplates • 2. Allow cells to adhere overnight in humidified 37° C./10% CO2 incubator • 3. Completely remove cell growth media from microplate and replace with 25 μl loading buffer • 4. Incubate Microplate at room temperature, protected from light, for 90 min • 5. Remove loading buffer and replace with 25 μl 1× Assay Buffer±test compound. • 6. Incubate microplate at room temperature, protected from light, for 30 min • 7. […]

This note sets out measurements from patent US9951052B2, “Inhibitors of the renal outer medullary potassium channel” (Merck Sharp & Dohme Corp., priority 2013, dated 2018).

As a reminder, the IC50 is the concentration that gives 50% inhibition.

Regarding `COc1cc(NC(=O)C2CCN(C[C@H](O)c3ccc4c(c3C)COC4=O)CC2)ccc1C#N` [Example 26, (R)-N-(4-cyano-3-methoxyphenyl)-1-(2-hydroxy-2-(4-methyl-1-oxo-1,3-dihydroisobenzofuran-5-yl)ethyl)piperidine-4-carboxamide], the concentration for half-maximal inhibition (IC50) was 150 nM.
The result for `Cc1c(CCN2CCC(C(=O)Nc3ccc(C#N)c(F)c3)CC2)ccc2c1COC2=O` [Example 5, N-(4-cyano-3-fluorophenyl)-1-(2-(4-methyl-1-oxo-1,3-dihydroisobenzofuran-5-yl)ethyl)piperidine-4-carboxamide] reads 30 nM; that for `Cc1nsc(N(C)C(=O)C2C3CN(C[C@H](O)c4ccc5c(c4C)COC5=O)CC32)n1` (stereo partly drawn) [Example 62, 3-((R)-2-hydroxy-2-(4-methyl-1-oxo-1,3-dihydroisobenzofuran-5-yl)ethyl)-N-methyl-N-(3-methyl-1,2,4-thiadiazol-5-yl)-3-azabicyclo[3.1.0]hexane-6-carboxamide], 170 nM.
On to `CCOc1cc(NC(=O)C2CCN(C[C@H](O)c3ccc4c(c3C)COC4=O)CC2)ccc1C#N` [Example 25, (R)-N-(4-cyano-3-ethoxyphenyl)-1-(2-hydroxy-2-(4-methyl-1-oxo-1,3-dihydroisobenzofuran-5-yl)ethyl)piperidine-4-carboxamide], for which the IC50 was found to be 180 nM.
The value for `Cc1c([C@@H](O)CN2CCC(C(=O)Nc3ccncc3)CC2)ccc2c1COC2=O` [Example 35, (R)-1-(2-hydroxy-2-(4-methyl-1-oxo-1,3-dihydroisobenzofuran-5-yl)ethyl)-N-(pyridin-4-yl)piperidine-4-carboxamide] was 420 nM; that for `Cc1cc(NC(=O)C2CCN(C[C@H](O)c3ccc4c(c3C)COC4=O)CC2)sn1` [Example 36, (R)-1-(2-hydroxy-2-(4-methyl-1-oxo-1,3-dihydroisobenzofuran-5-yl)ethyl)-N-(3-methylisothiazol-5-yl)piperidine-4-carboxamide] was 120 nM.
The value for `Cc1nsc(NC(=O)C2C3CN(C[C@H](O)c4ccc5c(c4C)COC5=O)CC32)n1` (stereo partly drawn) [Example 56, 3-((R)-2-hydroxy-2-(4-methyl-1-oxo-1,3-dihydroisobenzofuran-5-yl)ethyl)-N-(3-methyl-1,2,4-thiadiazol-5-yl)-3-azabicyclo[3.1.0]hexane-6-carboxamide] was 350 nM.
In the case of `Cc1nc(NC(=O)C2CCN(CCc3ccc4c(c3C)COC4=O)CC2)ccc1C#N` [Example 7, N-(5-cyano-6-methylpyridin-2-yl)-1-(2-(4-methyl-1-oxo-1,3-dihydroisobenzofuran-5-yl)ethyl)piperidine-4-carboxamide], the IC50 came to 100 nM.
The value for `Cc1c([C@@H](O)CN2CCC(F)(C(=O)N3CCc4cnccc43)CC2)ccc2c1COC2=O` [Example 49, (R)-5-(2-(4-(2,3-dihydro-1H-pyrrolo[3,2-c]pyridine-1-carbonyl)-4-fluoropiperidin-1-yl)-1-hydroxyethyl)-4-methylisobenzofuran-1(3H)-one] was 200 nM; that for `Cc1c([C@@H](O)CN2CCC(C(=O)Nc3ccc(-c4csnn4)cc3)CC2)ccc2c1COC2=O` [Example 33, (R)-N-(4-(1,2,3-thiadiazol-4-yl)phenyl)-1-(2-hydroxy-2-(4-methyl-1-oxo-1,3-dihydroisobenzofuran-5-yl)ethyl)piperidine-4-carboxamide] was 170 nM.
The result for `Cc1cc(N(C)C(=O)C2CCN(C[C@H](O)c3ccc4c(c3C)COC4=O)CC2)sn1` [Example 44, (R)-1-(2-hydroxy-2-(4-methyl-1-oxo-1,3-dihydroisobenzofuran-5-yl)ethyl)-N-methyl-N-(3-methylisothiazol-5-yl)piperidine-4-carboxamide] reads 20 nM; that for `Cc1c([C@@H](O)CN2CCC(C(=O)N(C)c3ccns3)CC2)ccc2c1COC2=O` [Example 41, 1-[(2R)-2-hydroxy-2-(4-methyl-1-oxo-1,3-dihydro-2-benzofuran-5-yl)ethyl]-N-(isothiazol-5-yl)-N-methylpiperidine-4-carboxamide], 10 nM; that for `Cl.[2H]C([2H])([2H])N(C(=O)C1CCN(C[C@H](O)c2ccc3c(c2C)COC3=O)CC1)c1ccns1` [Example 42, 1-[(2R)-2-hydroxy-2-(4-methyl-1-oxo-1,3-dihydro-2-benzofuran-5-yl)ethyl]-N-(isothiazol-5-yl)-N-trideuteromethylpiperidine-4-carboxamide], 20 nM.
The result for `Cc1c(CCN2CCC(C(=O)Nc3ccc4nonc4c3)CC2)ccc2c1COC2=O` [Example 11, N-(benzo[c][1,2,5]oxadiazol-5-yl)-1-(2-(4-methyl-1-oxo-1,3-dihydroisobenzofuran-5-yl)ethyl)piperidine-4-carboxamide] reads 210 nM.
Turning to `N#Cc1cc(NC(=O)C2CCN(CCc3ccc4c(c3)COC4=O)CC2)ccc1Cl` [Example 16, N-(4-chloro-3-cyanophenyl)-1-(2-(1-oxo-1,3-dihydroisobenzofuran-5-yl)ethyl)piperidine-4-carboxamide], the IC50 stood at 260 nM.
The value for `Cc1nc(NC(=O)C2(F)CCN(C[C@H](O)c3ccc4c(c3C)COC4=O)CC2)ccc1C#N` [Example 51, (R)-N-(5-cyano-6-methylpyridin-2-yl)-4-fluoro-1-(2-hydroxy-2-(4-methyl-1-oxo-1,3-dihydroisobenzofuran-5-yl)ethyl)piperidine-4-carboxamide] was 220 nM; that for `Cc1c([C@@H](O)CN2CCC(C(=O)Nc3cccc(-n4cnnn4)c3)CC2)ccc2c1COC2=O` [Example 24, (R)-N-(3-(1H-tetrazol-1-yl)phenyl)-1-(2-hydroxy-2-(4-methyl-1-oxo-1,3-dihydroisobenzofuran-5-yl)ethyl)piperidine-4-carboxamide] was 90 nM.
The value for `Cc1cc(NC(=O)C2(O)CCN(C[C@H](O)c3ccc4c(c3C)COC4=O)CC2)sn1` [Example 39, (R)-4-hydroxy-1-(2-hydroxy-2-(4-methyl-1-oxo-1,3-dihydroisobenzofuran-5-yl)ethyl)-N-(3-methylisothiazol-5-yl)piperidine-4-carboxamide] was 220 nM; that for `COc1nsc(N(C)C(=O)C2CCN(C[C@H](O)c3ccc4c(c3C)COC4=O)CC2)n1` [Example 45, (R)-1-(2-hydroxy-2-(4-methyl-1-oxo-1,3-dihydroisobenzofuran-5-yl)ethyl)-N-(3-methoxy-1,2,4-thiadiazol-5-yl)-N-methylpiperidine-4-carboxamide] was 250 nM; that for `COc1nsc(NC(=O)C2CCN(C[C@H](O)c3ccc4c(c3C)COC4=O)CC2)n1` [Example 1, (R)-1-(2-Hydroxy-2-(4-methyl-1-oxo-1,3-dihydroisobenzofuran-5-yl)ethyl)-N-(3-methoxy-1,2,4-thiadiazol-5-yl)piperidine-4-carboxamide] was 170 nM.
